Data as given in ChEMBL document CHEMBL1140277, “Antibiotics GE23077, novel inhibitors of bacterial RNA polymerase. Part 3: Chemical derivatization” (Bioorg Med Chem Lett, 2005).
≈ marks a conversion by molar mass, not a printed value. Numbered stars: 1 amine (or outer) side, 2 acyl side, 3 side chain; on linkers, the order of the positions; unused ones are H or OH. Square brackets hold non-standard residues; d marks the D form. Peptide text beside a SMILES is read from it. * marks the point of attachment. ξ: configuration not given here. ξGln(3,4-(OH)2) = NC(=O)C(O)C(O)C(N)C(=O)O; isoSer(2S) = O=C([C@@H](O)CN[*:1])[*:2]; ξAllylGly = C=CCC(N)C(=O)O; X1 = CC(NCc1ccccc1)C(=O)*; ξE = NC(CCC(=O)O)C(=O)O; Dap = NC[C@H](N)C(=O)O; X2 = C/C=C(/C)C(=O)*

Columns and labels:
[1] = Minimum inhibitory concentration against Moraxella catarrhalis using broth microdilution method; assay type: functional
[2] = Inhibitory concentration against RNA polymerase from Escherichia coli using cell freei transcription assay; assay type: functional

| Structure (SMILES) | MIC [1] [µg/mL] | IC50 [2] [µg/mL] |
| --- | --- | --- |
| CC(NCc1ccc(C(F)(F)F)cc1)C(=O)NC[C@@H]1NC(=O)C(C(=O)O)NC(=O)[C@@H](O)CNC(=O)[C@H]([C@@H](C)O)NC(=O)C(C(O)C(O)C(N)=O)NC(=O)[C@H](C(C)C)NC(=O)[C@H](CO)NC1=O (some centres undefined) | 256 (≈ 269 µM) | 0.05 (≈ 0.0526 µM) |
| CC(NCc1cc(C(F)(F)F)cc(C(F)(F)F)c1)C(=O)NC[C@@H]1NC(=O)C(C(=O)O)NC(=O)[C@@H](O)CNC(=O)[C@H]([C@@H](C)O)NC(=O)C(C(O)C(O)C(N)=O)NC(=O)[C@H](C(C)C)NC(=O)[C@H](CO)NC1=O (some centres undefined) | 512 (≈ 503 µM) | 0.24 (≈ 0.236 µM) |
| CC(NCc1cc(F)c(F)c(F)c1)C(=O)NC[C@@H]1NC(=O)C(C(=O)O)NC(=O)[C@@H](O)CNC(=O)[C@H]([C@@H](C)O)NC(=O)C(C(O)C(O)C(N)=O)NC(=O)[C@H](C(C)C)NC(=O)[C@H](CO)NC1=O (some centres undefined) | 64 (≈ 68.3 µM) | 0.06 (≈ 0.064 µM) |
| CC(NCC(F)(F)F)C(=O)NC[C@@H]1NC(=O)C(C(=O)O)NC(=O)[C@@H](O)CNC(=O)[C@H]([C@@H](C)O)NC(=O)C(C(O)C(O)C(N)=O)NC(=O)[C@H](C(C)C)NC(=O)[C@H](CO)NC1=O (some centres undefined) | > 512 | 0.17 (≈ 0.194 µM) |
| CC(O)C(=O)NC[C@@H]1NC(=O)C(C(=O)O)NC(=O)[C@@H](O)CNC(=O)[C@H]([C@@H](C)O)NC(=O)C(C(O)C(O)C(N)=O)NC(=O)[C@H](C(C)C)NC(=O)[C@H](CO)NC1=O (some centres undefined) | 64 (≈ 80.6 µM) | 0.11 (≈ 0.139 µM) |
| C/C=C(/C)C(=O)NC[C@@H]1NC(=O)[C@@H](C(=O)O)NC(=O)[C@@H](O)CNC(=O)[C@H]([C@@H](C)O)NC(=O)C(C(O)C(O)C(N)=O)NC(=O)[C@H](C(C)C)NC(=O)[C@H](CO)NC1=O (some centres undefined) | 8 (≈ 9.95 µM) | 0.03 (≈ 0.0373 µM) |
| C/C=C(/C)C(=O)NC[C@@H]1NC(=O)C(C(=O)OC)NC(=O)[C@@H](O)CNC(=O)[C@H]([C@@H](C)O)NC(=O)C(C(O)C(O)CN)NC(=O)[C@H](C(C)C)NC(=O)[C@H](CO)NC1=O (some centres undefined) | 32 (≈ 39.8 µM) | 3.14 (≈ 3.91 µM) |
| C/C=C(/C)C(=O)NC[C@@H]1NC(=O)C(C(=O)OC)NC(=O)[C@@H](O)CNC(=O)[C@H]([C@@H](C)O)NC(=O)C(C(O)C(O)CNC(=O)/C=C/c2ccccc2)NC(=O)[C@H](C(C)C)NC(=O)[C@H](CO)NC1=O (some centres undefined) | > 512 | > 3.2 |
| C/C=C(/C)C(=O)NC[C@@H]1NC(=O)C(C(=O)OC)NC(=O)[C@@H](O)CNC(=O)[C@H]([C@@H](C)O)NC(=O)C(C(O)C(O)CNC(=O)C(CCCC)CCCCCC)NC(=O)[C@H](C(C)C)NC(=O)[C@H](CO)NC1=O (some centres undefined) | > 512 | > 3.2 |
| C/C=C(/C)C(=O)NC[C@@H]1NC(=O)C(C(=O)OC)NC(=O)[C@@H](O)CNC(=O)[C@H]([C@@H](C)O)NC(=O)C(C(O)C(O)CNC(=O)Cc2ccc(-c3ccccc3)cc2)NC(=O)[C@H](C(C)C)NC(=O)[C@H](CO)NC1=O (some centres undefined) | > 512 | > 3.2 |
| C/C=C(/C)C(=O)NC[C@@H]1NC(=O)C(C(=O)OC)NC(=O)[C@@H](O)CNC(=O)[C@H]([C@@H](C)O)NC(=O)C(C(O)C(O)C(N)=O)NC(=O)[C@H](C(C)C)NC(=O)[C@H](CO)NC1=O (some centres undefined) | 8 (≈ 9.78 µM) | 0.15 (≈ 0.183 µM) |
| C/C=C(/C)C(=O)NC[C@@H]1NC(=O)C(C(=O)OCC)NC(=O)[C@@H](O)CNC(=O)[C@H]([C@@H](C)O)NC(=O)C(C(O)C(O)C(N)=O)NC(=O)[C@H](C(C)C)NC(=O)[C@H](CO)NC1=O (some centres undefined) | 64 (≈ 76.9 µM) | 0.1 (≈ 0.12 µM) |
| C=CCOC(=O)C1NC(=O)[C@@H](O)CNC(=O)[C@H]([C@@H](C)O)NC(=O)C(C(O)C(O)C(N)=O)NC(=O)[C@H](C(C)C)NC(=O)[C@H](CO)NC(=O)[C@H](CNC(=O)/C(C)=C\C)NC1=O (some centres undefined) | – | 0.4 (≈ 0.474 µM) |
| C/C=C(/C)C(=O)NC[C@@H]1NC(=O)C(C(=O)NCc2ccccc2)NC(=O)[C@@H](O)CNC(=O)[C@H]([C@@H](C)O)NC(=O)C(C(O)C(O)C(N)=O)NC(=O)[C@H](C(C)C)NC(=O)[C@H](CO)NC1=O (some centres undefined) | 128 (≈ 143 µM) | 0.3 (≈ 0.336 µM) |
| C/C=C(/C)C(=O)NC[C@@H]1NC(=O)C(C(=O)N(C)OC)NC(=O)[C@@H](O)CNC(=O)[C@H]([C@@H](C)O)NC(=O)C(C(O)C(O)C(N)=O)NC(=O)[C@H](C(C)C)NC(=O)[C@H](CO)NC1=O (some centres undefined) | – | 0.4 (≈ 0.472 µM) |
| C/C=C(/C)C(=O)NC[C@@H]1NC(=O)C(C(=O)NC(Cc2ccc(O)cc2)C(=O)O)NC(=O)[C@@H](O)CNC(=O)[C@H]([C@@H](C)O)NC(=O)C(C(O)C(O)C(N)=O)NC(=O)[C@H](C(C)C)NC(=O)[C@H](CO)NC1=O (some centres undefined) | 512 (≈ 529 µM) | – |

| Structure (SMILES) | MIC [1] [µg/mL] | IC50 [2] [µg/mL] |
| --- | --- | --- |
| C/C=C(/C)C(=O)NC[C@@H]1NC(=O)C(C(=O)N[C@@H](C)C(=O)N[C@@H](C)C(=O)OC)NC(=O)[C@@H](O)CNC(=O)[C@H]([C@@H](C)O)NC(=O)C(C(O)C(O)C(N)=O)NC(=O)[C@H](C(C)C)NC(=O)[C@H](CO)NC1=O (some centres undefined) | 64 (≈ 66.7 µM) | > 3.2 |
| CC(=O)C(=O)NC[C@@H]1NC(=O)C(C(=O)O)NC(=O)[C@@H](O)CNC(=O)[C@H]([C@@H](C)O)NC(=O)C(C(O)C(O)C(N)=O)NC(=O)[C@H](C(C)C)NC(=O)[C@H](CO)NC1=O (some centres undefined) | 8 (≈ 10.1 µM) | 0.07 (≈ 0.0884 µM) |
| CC(NCc1ccccc1)C(=O)NC[C@@H]1NC(=O)C(C(=O)O)NC(=O)[C@@H](O)CNC(=O)[C@H]([C@@H](C)O)NC(=O)C(C(O)C(O)C(N)=O)NC(=O)[C@H](C(C)C)NC(=O)[C@H](CO)NC1=O (some centres undefined) | 32 (≈ 36.2 µM) | 0.07 (≈ 0.0793 µM) |
| CC(NCC1CCCCC1)C(=O)NC[C@@H]1NC(=O)C(C(=O)O)NC(=O)[C@@H](O)CNC(=O)[C@H]([C@@H](C)O)NC(=O)C(C(O)C(O)C(N)=O)NC(=O)[C@H](C(C)C)NC(=O)[C@H](CO)NC1=O (some centres undefined) | 16 (≈ 18 µM) | 0.42 (≈ 0.472 µM) |
| CC(N)C(=O)NC[C@@H]1NC(=O)C(C(=O)O)NC(=O)[C@@H](O)CNC(=O)[C@H]([C@@H](C)O)NC(=O)C(C(O)C(O)C(N)=O)NC(=O)[C@H](C(C)C)NC(=O)[C@H](CO)NC1=O (some centres undefined) | 64 (≈ 80.7 µM) | 0.28 (≈ 0.353 µM) |
| CCCCCCCCc1ccc(C(=O)NC(C)C(=O)NC[C@@H]2NC(=O)C(C(=O)O)NC(=O)[C@@H](O)CNC(=O)[C@H]([C@@H](C)O)NC(=O)C(C(O)C(O)C(N)=O)NC(=O)[C@H](C(C)C)NC(=O)[C@H](CO)NC2=O)cc1 (some centres undefined) | > 512 | 0.07 (≈ 0.0694 µM) |
| CC(NC(=O)/C=C/c1ccccc1)C(=O)NC[C@@H]1NC(=O)C(C(=O)O)NC(=O)[C@@H](O)CNC(=O)[C@H]([C@@H](C)O)NC(=O)C(C(O)C(O)C(N)=O)NC(=O)[C@H](C(C)C)NC(=O)[C@H](CO)NC1=O (some centres undefined) | 128 (≈ 139 µM) | 0.08 (≈ 0.0867 µM) |
| CC(NC(=O)Cc1ccc(-c2ccccc2)cc1)C(=O)NC[C@@H]1NC(=O)C(C(=O)O)NC(=O)[C@@H](O)CNC(=O)[C@H]([C@@H](C)O)NC(=O)C(C(O)C(O)C(N)=O)NC(=O)[C@H](C(C)C)NC(=O)[C@H](CO)NC1=O (some centres undefined) | > 512 | 0.22 (≈ 0.223 µM) |
| CCCCCCCCC(=O)NC(C)C(=O)NC[C@@H]1NC(=O)C(C(=O)O)NC(=O)[C@@H](O)CNC(=O)[C@H]([C@@H](C)O)NC(=O)C(C(O)C(O)C(N)=O)NC(=O)[C@H](C(C)C)NC(=O)[C@H](CO)NC1=O (some centres undefined) | 256 (≈ 274 µM) | 0.09 (≈ 0.0965 µM) |
| CCCCCCC(CCCC)C(=O)NC(C)C(=O)NC[C@@H]1NC(=O)C(C(=O)O)NC(=O)[C@@H](O)CNC(=O)[C@H]([C@@H](C)O)NC(=O)C(C(O)C(O)C(N)=O)NC(=O)[C@H](C(C)C)NC(=O)[C@H](CO)NC1=O (some centres undefined) | 512 (≈ 525 µM) | 0.13 (≈ 0.133 µM) |
| CCCCCCCCCCCCCCCCCC(=O)NC(C)C(=O)NC[C@@H]1NC(=O)[C@@H](C(=O)O)NC(=O)[C@@H](O)CNC(=O)[C@H]([C@@H](C)O)NC(=O)C(C(O)C(O)C(N)=O)NC(=O)[C@H](C(C)C)NC(=O)[C@H](CO)NC1=O (some centres undefined) | > 512 | 0.57 (≈ 0.538 µM) |
| CC(NCc1ccccc1)C(=O)NC[C@@H]1NC(=O)CNC(=O)[C@@H](O)CNC(=O)[C@H]([C@@H](C)O)NC(=O)C(C(O)C(O)C(N)=O)NC(=O)[C@H](C(C)C)NC(=O)[C@H](CO)NC1=O (stereo partly drawn) (cyclo([Dap](X1)SV[ξGln(3,4-(OH)2)]T[isoSer(2S)]G)) | 128 (≈ 153 µM) | 1.05 (≈ 1.25 µM) |
| C/C=C(/C)C(=O)NC[C@@H]1NC(=O)CNC(=O)[C@@H](O)CNC(=O)[C@H]([C@@H](C)O)NC(=O)C(C(O)C(O)C(N)=O)NC(=O)[C@H](C(C)C)NC(=O)[C@H](CO)NC1=O (stereo partly drawn) (cyclo([Dap](X2)SV[ξGln(3,4-(OH)2)]T[isoSer(2S)]G)) | 16 (≈ 21.1 µM) | 0.65 (≈ 0.856 µM) |
| C=CCC1NC(=O)[C@@H](O)CNC(=O)[C@H]([C@@H](C)O)NC(=O)C(C(O)C(O)C(N)=O)NC(=O)[C@H](C(C)C)NC(=O)[C@H](CO)NC(=O)[C@H](CNC(=O)/C(C)=C\C)NC1=O (stereo partly drawn) (cyclo([Dap](X2)SV[ξGln(3,4-(OH)2)]T[isoSer(2S)][ξAllylGly])) | 32 (≈ 40 µM) | 2.24 (≈ 2.8 µM) |
| C/C=C(/C)C(=O)NC[C@@H]1NC(=O)C(CCC(=O)O)NC(=O)[C@@H](O)CNC(=O)[C@H]([C@@H](C)O)NC(=O)C(C(O)C(O)C(N)=O)NC(=O)[C@H](C(C)C)NC(=O)[C@H](CO)NC1=O (stereo partly drawn) (cyclo([Dap](X2)SV[ξGln(3,4-(OH)2)]T[isoSer(2S)][ξE])) | 8 (≈ 9.62 µM) | 0.2 (≈ 0.24 µM) |
